In patent US20080025960A1, “Detergents with stabilized enzyme systems” (priority 2006, published 2008):

How the values were obtained:
alcohol oxidase [1] = target: T1, alcohol oxidase (Pichia angusta, UniProt P04841); assay: Hydrogen peroxide concentration in control buffer or AATCC liquid detergent stock (as is) with alcohol oxidase, ethanol and inhibitor; format: biochemical, Hansunela sp.; conditions: for character of alcohol oxidase inhibition: 100 mM concentration tested; for premature generation of H2O2 in AATCC detergent stock / H2O2 PPM: 100 mM inhibitor; for premature generation of H2O2 in AATCC detergent stock: period of investigation 120 minutes; for H2O2 PPM: as is, 1 M ethanol, 10U enzyme
T1 construct: purchased Sigma
T1 sequence (P04841 whole entry): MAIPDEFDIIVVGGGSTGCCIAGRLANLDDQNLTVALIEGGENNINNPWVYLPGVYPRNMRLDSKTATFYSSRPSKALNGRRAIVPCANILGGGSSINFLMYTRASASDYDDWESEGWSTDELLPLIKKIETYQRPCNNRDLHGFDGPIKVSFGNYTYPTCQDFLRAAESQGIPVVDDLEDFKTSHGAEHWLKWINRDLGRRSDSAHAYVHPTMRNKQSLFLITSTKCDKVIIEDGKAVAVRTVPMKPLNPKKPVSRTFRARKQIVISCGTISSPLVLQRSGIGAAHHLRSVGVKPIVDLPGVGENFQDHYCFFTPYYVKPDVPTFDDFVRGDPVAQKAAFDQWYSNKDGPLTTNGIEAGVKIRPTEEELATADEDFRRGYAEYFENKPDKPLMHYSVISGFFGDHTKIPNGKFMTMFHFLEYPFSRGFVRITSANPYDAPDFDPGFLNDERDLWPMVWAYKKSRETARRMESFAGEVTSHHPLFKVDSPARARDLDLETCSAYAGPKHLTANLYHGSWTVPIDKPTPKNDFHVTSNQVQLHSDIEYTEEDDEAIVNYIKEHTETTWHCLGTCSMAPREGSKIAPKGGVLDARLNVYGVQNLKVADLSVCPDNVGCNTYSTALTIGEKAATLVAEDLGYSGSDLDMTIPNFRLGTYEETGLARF
Method: In these experiments, the stability of alcohol oxidase obtained from Hansunela sp., (100 U/ml. 22 U/mg, 13 mg total solid in vial, 7.7 U/mg solid; Sigma) in AATCC liquid detergent was tested. In these experiments, 10 U of the alcohol oxidase were used in liquid detergent stock for each experiment. For testing, 1M ethanol was mixed into the detergent (46 mg ethanol in 990 mg detergent). […] The experiments were conducted as described above in Examples 1 and 3.

alcohol oxidase [2] = target: T1, alcohol oxidase; assay: Hydrogen peroxide concentration in wash liquor with alcohol oxidase, ethanol and inhibitor; format: biochemical, Hansunela sp.; conditions: 2 mM ethanol, 0.02U enzyme, 0.2 mM inhibitor
Method: The stability and activity of the alcohol oxidase enzyme (described in Example 5) in AATCC liquid detergent (Sigma, 100 U/ml. 22 U/mg, 13 mg total solid in vial, 7.7 U/mg solid) was tested upon dilution into wash liquor. In these experiments, 10 U of alcohol oxidase were used in liquid detergent stock for each experiment. In addition, 1M ethanol (substrate) was mixed in detergent (46 mg ethanol in 990 mg detergent). […] In these experiments, 10 ul of final detergent mix or control mix were added to 5 ml of wash liquor. The same methods as described in Examples 2 and 4 were used in these experiments.

glucose oxidase = target: T2, glucose oxidase (Aspergillus niger, UniProt P13006); assay: Hydrogen peroxide generation by glucose oxidase after dilution of the mixture in laundry wash liquor, dipsticks; format: biochemical; conditions: for Hydrogen Peroxide Generation, PPM H2O2 / H2O2 PPM: wash liquor, 1 mM glucose; for Hydrogen Peroxide Generation, PPM H2O2: 1 PPM oxidase; for character of glucose oxidase inhibition: inhibited at high substrate concentration in detergent, inhibition disappears upon dilution in wash water, concentration-dependent; for hydrogen peroxide produced: liquid detergent formulations after 3 weeks of storage with inhibitor, diluted in wash liquor; for H2O2 generated: wash liquor control containing buffer
T2 construct: purchased Genencor OXYGO L-5000
T2 sequence (P13006 17-605): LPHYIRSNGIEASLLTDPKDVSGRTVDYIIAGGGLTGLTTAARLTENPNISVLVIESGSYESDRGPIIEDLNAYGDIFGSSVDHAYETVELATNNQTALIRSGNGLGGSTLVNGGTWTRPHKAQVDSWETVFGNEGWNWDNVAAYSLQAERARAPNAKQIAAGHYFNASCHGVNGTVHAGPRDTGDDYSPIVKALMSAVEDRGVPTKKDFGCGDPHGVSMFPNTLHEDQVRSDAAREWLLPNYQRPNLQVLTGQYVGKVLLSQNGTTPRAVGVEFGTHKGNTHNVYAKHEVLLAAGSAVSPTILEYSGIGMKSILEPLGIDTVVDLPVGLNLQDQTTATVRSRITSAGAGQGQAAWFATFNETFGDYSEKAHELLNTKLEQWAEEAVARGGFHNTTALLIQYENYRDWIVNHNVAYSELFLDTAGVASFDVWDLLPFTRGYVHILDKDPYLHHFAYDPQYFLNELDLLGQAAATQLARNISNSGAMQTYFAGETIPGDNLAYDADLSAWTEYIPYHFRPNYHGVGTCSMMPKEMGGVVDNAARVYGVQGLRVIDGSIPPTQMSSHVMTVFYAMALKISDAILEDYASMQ
Method: In these experiments, 100 mM Tris pH 8.3 with 0.005% TWEEN®-100 surfactant was used as a positive control. The choice of pH 8.3 was based upon the measured pH of the AATCC detergent. Three two-ml tubes containing 0.990 g of AATCC detergent (lot # 01282004) and another three tubes with 0.990 g of control buffer were weighed. Then, 90 mg (500 mM) glucose substrate was added to each tube. […] All of the tubes were placed on a rotary plate for an hour to allow good mixing and solubilization of glucose into the detergent. Then, 6 tubes containing five-ml wash water (5 mM HEPES with 6 GPG, pH 8) were prepared. Next, 500 PPM (0.5 mg, 14.88 ul) glucose oxidase (OXYGO™ L-5000, 5379 U/ml; 33.6 mg/ml; Genencor) was added to six 2-ml tubes (three with glucose/bisulfite containing control buffers and three with glucose/bisulfite containing AATCC detergent). All of the tubes were then set on the rotary plate (60 rpm) at room temperature. H2O2 production was measured using dipsticks (peroxidase/ABTS), as described in Example 1, for t=0+ minutes, 12 minutes, and 30 minutes. Immediately after addition of the enzyme to the detergent and control mixtures, 10 ul of the mixture were removed and mixed with 5 ml of wash water. All of the tubes were also then checked for hydrogen peroxide using dipsticks at 12 and 30 minutes. With 5 ml wash liquor, the final glucose oxidase enzyme concentration was 1 PPM and the glucose concentration was 1 mM.
In these experiments, 100 mM Tris pH 8.3 with 0.005% TWEEN®-100 surfactant was used as a positive control. The choice of pH 8.3 was based upon the measured pH of the AATCC detergent. Three two-ml tubes containing 0.990 g of AATCC detergent (lot # 01282004) and another three tubes with 0.990 g of control buffer were weighed. Then, 90 mg (500 mM) glucose substrate was added to each tube. Then, 100, 50, and 10 mM sodium metabisulfite were added to each tube respectively (i.e., both control buffer and AATCC detergent-containing tubes). All of the tubes were placed on a rotary plate for an hour to allow good mixing and solubilization of glucose into the detergent. Then, 6 tubes containing five-ml wash water (5 mM HEPES with 6 GPG, pH 8) were prepared. Next, 500 PPM (0.5 mg, 14.88 ul) glucose oxidase (OXYGO™ L-5000, 5379 U/ml; 33.6 mg/ml; Genencor) was added to six 2-ml tubes (three with glucose/bisulfite containing control buffers and three with glucose/bisulfite containing AATCC detergent). All of the tubes were then set on the rotary plate (60 rpm) at room temperature. H2O2 production was measured using dipsticks (peroxidase/ABTS), as described in the above Examples, for t=0+ minutes, 12 minutes, and 30 minutes. Immediately after addition of the enzyme to the detergent and control mixtures, 10 ul of the mixture were removed and mixed with 5 ml of wash water. All of the tubes were also then checked for hydrogen peroxide using dipsticks at 12 and 30 minutes. With 5 ml wash liquor, the final glucose oxidase enzyme concentration was 1 PPM and the glucose concentration was 1 mM.

Compound | character of alcohol oxidase inhibition (alcohol oxidase [1]) | premature generation of H2O2 in AATCC detergent stock (alcohol oxidase [1]) | H2O2 PPM (alcohol oxidase [1]; AATCC Detergent, T = 0+) [PPM] | H2O2 PPM (alcohol oxidase [1]; AATCC Detergent, T = 12 min) [PPM] | H2O2 PPM (alcohol oxidase [1]; AATCC Detergent, T = 30 min) [PPM] | H2O2 PPM (alcohol oxidase [1]; AATCC Detergent, T = 120 min) | H2O2 PPM (alcohol oxidase [1]; Control Buffer, T = 0+) [PPM] | H2O2 PPM (alcohol oxidase [1]; Control Buffer, T = 12 min) [PPM] | H2O2 PPM (alcohol oxidase [1]; Control Buffer, T = 30 min) [PPM] | H2O2 PPM (alcohol oxidase [1]; Control Buffer, T = 120 min) [PPM] | H2O2 PPM (alcohol oxidase [2]; AATCC Detergent, T = 12 min) [PPM] | H2O2 PPM (alcohol oxidase [2]; AATCC Detergent, T = 30 min) [PPM] | H2O2 PPM (alcohol oxidase [2]; AATCC Detergent, T = 120 min) | H2O2 PPM (alcohol oxidase [2]; Control Buffer, T = 0+) [PPM] | H2O2 PPM (alcohol oxidase [2]; Control Buffer, T = 12 min) [PPM] | H2O2 PPM (alcohol oxidase [2]; Control Buffer, T = 30 min) [PPM] | H2O2 PPM (alcohol oxidase [2]; Control Buffer, T = 120 min) | character of glucose oxidase inhibition (glucose oxidase) | other results
O=S([O-])O.[Na+] [bisulfite, sodium hydrogen sulfite] | reversible inhibitors | able to stop premature generation of H2O2 | 0 | 0 | 0 | 0, PPM | 0 | 0 | 0 | 0 | 0 | 0 | >3 (hydrogen sulfite) PPM | 0 | 0 | 0 | 1 (hydrogen sulfite) PPM | reversible inhibitor | H2O2 PPM (alcohol oxidase [2]; AATCC Detergent, T = 0+): 0 PPM; Hydrogen Peroxide Generation, PPM H2O2 (glucose oxidase; AATCC Detergent, T = 12 (second line so headed, after the T = 30 lines), 0.2 mM bisulfite): ˜10 PPM; Hydrogen Peroxide Generation, PPM H2O2 (glucose oxidase; AATCC Detergent, T = 12 min, 0.02 mM bisulfite): 3 PPM; Hydrogen Peroxide Generation, PPM H2O2 (glucose oxidase; AATCC Detergent, T = 12 min, 0.1 mM bisulfite): 3 PPM; Hydrogen Peroxide Generation, PPM H2O2 (glucose oxidase; AATCC Detergent, T = 12 min, 0.2 mM bisulfite): 3 PPM; Hydrogen Peroxide Generation, PPM H2O2 (glucose oxidase; AATCC Detergent, T = 30 min, 0.02 mM bisulfite): 10 PPM; Hydrogen Peroxide Generation, PPM H2O2 (glucose oxidase; AATCC Detergent, T = 30 min, 0.1 mM bisulfite): ˜10 PPM; Hydrogen Peroxide Generation, PPM H2O2 (glucose oxidase; Control Buffer, T = 12 (second line so headed, after the T = 30 lines), 0.2 mM bisulfite): ˜3 PPM; Hydrogen Peroxide Generation, PPM H2O2 (glucose oxidase; Control Buffer, T = 30 min, 0.02 mM bisulfite): 10 PPM; Hydrogen Peroxide Generation, PPM H2O2 (glucose oxidase; Control Buffer, T = 30 min, 0.1 mM bisulfite): ˜10 PPM; hydrogen peroxide generated (glucose oxidase; wash liquor containing AATCC detergent, all three bisulfite inhibitor concentrations, 12 minutes): > 3 PPM; hydrogen peroxide generated (glucose oxidase; wash liquor with AATCC detergent, all three bisulfite inhibitor concentrations, 30 minutes): ~10 PPM
O=S([O-])S(=O)(=O)[O-].[Na+].[Na+] [sodium metabisulfite] | reversible inhibitors | able to stop premature generation of H2O2 | 0 | 0 | 0 | 0, PPM | 0 | 0 | 0 | 0 | 0 | 0 | 1 (metabisulfite) PPM | 0 | 0 | 0 | 0 (metabisulfite) PPM | reversible inhibitor | H2O2 PPM (glucose oxidase; AATCC Detergent, T = 12 min, 1 PPM enzyme, 0.2 mM sodium metabisulfite): 3 PPM; H2O2 PPM (glucose oxidase; AATCC Detergent, T = 30 min, 1 PPM enzyme, 0.2 mM sodium metabisulfite): ˜10 PPM; H2O2 PPM (glucose oxidase; AATCC Detergent, T = 60 min, 1 PPM glucose oxidase, 0.2 mM sodium metabisulfite): >10 PPM; H2O2 PPM (glucose oxidase; Control Buffer, T = 12 min, 1 PPM enzyme, 0.2 mM sodium metabisulfite (100 mM in formulation)): ~3 PPM; H2O2 PPM (glucose oxidase; Control Buffer, T = 12 min, 1 PPM enzyme, 0.2 mM sodium metabisulfite (100 mM in formulation), listed as sodium metabisulftie): 1 PPM; H2O2 PPM (glucose oxidase; Control Buffer, T = 30 min, 1 PPM enzyme, 0.2 mM sodium metabisulfite): 3 PPM; H2O2 PPM (glucose oxidase; Control Buffer, T = 60 min, 1 PPM glucose oxidase, 0.2 mM sodium metabisulfite): 10 PPM; hydrogen peroxide produced (glucose oxidase; 12 minutes): 3 PPM; hydrogen peroxide produced (glucose oxidase; 30 minutes): ~10 PPM; hydrogen peroxide generated (glucose oxidase; wash liquor containing AATCC detergent, all three metabisulfite inhibitor concentrations, 12 minutes): > 3 PPM; H2O2 generated (glucose oxidase; 10 mM metabisulfite (formulation), 12 minutes): about 10 PPM; H2O2 generated (glucose oxidase; 50 mM metabisulfite (formulation), 12 minutes): about 10 PPM; hydrogen peroxide generated (glucose oxidase; wash liquor with AATCC detergent, all three metabisulfite inhibitor concentrations, 30 minutes): ~10 PPM
